Reference: ChEMBL document CHEMBL5346964, “Discovery of LNP1892: A Precision Calcimimetic for the Treatment of Secondary Hyperparathyroidism” (J Med Chem, 2023)

Key:
[1] = target: T1, Extracellular calcium-sensing receptor (Homo sapiens, UniProt P41180); test: Agonist activity at human CaSR expresssed in HEK293 cells in presence of glucose by Fluo4NW dye based FLIPR assay; format: functional, cell-based; details: read-out: EC50
T1 sequence (P41180 whole entry): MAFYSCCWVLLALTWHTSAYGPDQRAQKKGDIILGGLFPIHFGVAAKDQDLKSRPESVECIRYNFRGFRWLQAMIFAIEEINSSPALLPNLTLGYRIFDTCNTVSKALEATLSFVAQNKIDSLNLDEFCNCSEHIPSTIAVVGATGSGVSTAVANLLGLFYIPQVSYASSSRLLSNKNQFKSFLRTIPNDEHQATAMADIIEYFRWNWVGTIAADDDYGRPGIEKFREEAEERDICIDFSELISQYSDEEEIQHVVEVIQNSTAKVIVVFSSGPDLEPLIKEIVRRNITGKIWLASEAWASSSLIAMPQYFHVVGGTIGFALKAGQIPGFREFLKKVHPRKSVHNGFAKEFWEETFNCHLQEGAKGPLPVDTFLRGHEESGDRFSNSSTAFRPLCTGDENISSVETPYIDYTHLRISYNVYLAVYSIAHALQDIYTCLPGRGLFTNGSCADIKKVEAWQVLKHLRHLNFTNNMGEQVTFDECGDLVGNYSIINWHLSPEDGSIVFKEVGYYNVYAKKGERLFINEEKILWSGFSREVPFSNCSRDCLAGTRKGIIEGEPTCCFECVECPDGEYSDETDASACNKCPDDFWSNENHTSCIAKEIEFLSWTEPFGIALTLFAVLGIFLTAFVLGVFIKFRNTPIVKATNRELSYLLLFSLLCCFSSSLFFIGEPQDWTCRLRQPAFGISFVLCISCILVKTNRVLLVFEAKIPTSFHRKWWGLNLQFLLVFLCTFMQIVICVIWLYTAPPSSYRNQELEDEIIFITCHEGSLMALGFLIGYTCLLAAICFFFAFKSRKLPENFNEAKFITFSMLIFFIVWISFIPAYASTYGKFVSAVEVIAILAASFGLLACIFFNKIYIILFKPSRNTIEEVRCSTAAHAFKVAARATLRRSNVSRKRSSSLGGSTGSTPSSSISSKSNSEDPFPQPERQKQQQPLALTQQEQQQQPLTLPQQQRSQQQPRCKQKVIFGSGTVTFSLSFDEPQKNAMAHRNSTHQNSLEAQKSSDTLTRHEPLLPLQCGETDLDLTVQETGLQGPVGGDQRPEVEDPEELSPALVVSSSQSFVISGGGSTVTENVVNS

hERG [2] = target: T2, hERG (Homo sapiens, UniProt Q12809); test: Inhibition of hERG at 1 uM relative to control; format: toxicity
T2 sequence (Q12809 whole entry): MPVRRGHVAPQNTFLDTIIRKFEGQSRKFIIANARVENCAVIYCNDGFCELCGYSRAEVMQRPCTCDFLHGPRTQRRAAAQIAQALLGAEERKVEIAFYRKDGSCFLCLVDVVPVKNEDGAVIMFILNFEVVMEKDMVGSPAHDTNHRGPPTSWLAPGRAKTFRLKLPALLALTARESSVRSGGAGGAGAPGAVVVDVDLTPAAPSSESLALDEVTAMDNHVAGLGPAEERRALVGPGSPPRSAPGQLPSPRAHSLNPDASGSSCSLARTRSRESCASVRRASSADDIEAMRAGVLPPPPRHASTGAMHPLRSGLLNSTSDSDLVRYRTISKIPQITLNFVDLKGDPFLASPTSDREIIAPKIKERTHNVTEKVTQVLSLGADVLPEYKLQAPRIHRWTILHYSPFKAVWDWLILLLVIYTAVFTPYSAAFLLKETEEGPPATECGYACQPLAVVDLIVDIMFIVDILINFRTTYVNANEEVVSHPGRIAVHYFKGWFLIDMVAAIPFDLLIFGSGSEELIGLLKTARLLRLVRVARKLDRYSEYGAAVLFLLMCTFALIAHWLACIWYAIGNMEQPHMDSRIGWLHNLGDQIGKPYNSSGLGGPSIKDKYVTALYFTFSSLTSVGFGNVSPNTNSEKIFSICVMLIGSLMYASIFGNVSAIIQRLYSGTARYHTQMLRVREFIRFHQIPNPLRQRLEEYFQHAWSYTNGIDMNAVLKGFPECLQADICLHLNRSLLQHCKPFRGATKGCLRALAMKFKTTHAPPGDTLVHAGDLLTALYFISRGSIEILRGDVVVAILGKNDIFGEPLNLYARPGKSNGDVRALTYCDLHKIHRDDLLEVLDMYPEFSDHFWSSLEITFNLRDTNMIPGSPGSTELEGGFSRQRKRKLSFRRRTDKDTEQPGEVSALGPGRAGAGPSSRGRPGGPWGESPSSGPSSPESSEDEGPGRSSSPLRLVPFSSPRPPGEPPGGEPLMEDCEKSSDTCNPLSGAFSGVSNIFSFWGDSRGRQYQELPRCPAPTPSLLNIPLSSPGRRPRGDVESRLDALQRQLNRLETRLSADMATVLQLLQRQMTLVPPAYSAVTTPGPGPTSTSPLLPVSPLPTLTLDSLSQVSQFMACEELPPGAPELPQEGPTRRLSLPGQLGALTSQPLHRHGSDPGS

hERG [3] = target: T2, hERG; test: Inhibition of hERG at 10 uM relative to control; format: toxicity
[4] = Microsomal stability in rat liver microsomes assessed as parent compound remaining at 1 uM measured upto 30 mins in presence of NADPH by LC-MS/MS analysis; format: ADME, Microsome; details: read-out: Stability
[5] = Microsomal stability in human liver microsomes assessed as parent compound remaining at 1 uM measured upto 30 mins in presence of NADPH by LC-MS/MS analysis; format: ADME, Microsome; details: liver microsomes, read-out: Stability
Cytochrome P450 2D6 = Cytochrome P450 2D6 (Homo sapiens, UniProt P10635); test: Inhibition of CYP2D6 in human liver microsomes preincubated for 5 mins followed by NADPH addition by LC-MS/MS analysis; format: ADME, Microsome
Chain of Cytochrome P450 2D6 (P10635 whole entry): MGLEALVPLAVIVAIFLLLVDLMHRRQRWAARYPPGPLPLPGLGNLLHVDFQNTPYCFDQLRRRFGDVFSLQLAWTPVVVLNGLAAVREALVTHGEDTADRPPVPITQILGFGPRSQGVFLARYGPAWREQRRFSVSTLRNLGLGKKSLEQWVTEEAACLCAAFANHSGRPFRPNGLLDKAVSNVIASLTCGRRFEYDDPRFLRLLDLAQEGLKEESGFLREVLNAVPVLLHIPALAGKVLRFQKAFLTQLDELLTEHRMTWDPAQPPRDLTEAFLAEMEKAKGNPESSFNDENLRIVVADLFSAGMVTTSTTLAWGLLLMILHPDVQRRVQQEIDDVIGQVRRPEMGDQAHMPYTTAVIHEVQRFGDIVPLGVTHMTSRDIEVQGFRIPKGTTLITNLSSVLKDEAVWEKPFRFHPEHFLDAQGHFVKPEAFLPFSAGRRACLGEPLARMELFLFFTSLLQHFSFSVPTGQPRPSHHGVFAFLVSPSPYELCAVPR

[6] = AUClast in Sprague-Dawley rat at 1 mg/kg, iv measured upto 24 hrs by LC-MS/MS analysis; format: ADME, organism-based; design: dose 1 mg/kg, time < 24 hrs, route iv; details: in vivo
[7] = Half life in Sprague-Dawley rat at 1 mg/kg, iv measured upto 24 hrs by LC-MS/MS analysis; format: ADME, organism-based; details: in vivo
[8] = Clearance in Sprague-Dawley rat at 1 mg/kg, iv measured upto 24 hrs by LC-MS/MS analysis; format: ADME, organism-based; details: in vivo
[9] = Volume of distribution at steady state in Sprague-Dawley rat at 1 mg/kg, iv measured upto 24 hrs by LC-MS/MS analysis; format: ADME, organism-based; details: in vivo, read-out: Vdss
[10] = Tmax in Sprague-Dawley rat at 10 mg/kg, po measured upto 24 hrs by LC-MS/MS analysis; format: ADME, organism-based; details: in vivo
[11] = Cmax in Sprague-Dawley rat at 10 mg/kg, po measured upto 24 hrs by LC-MS/MS analysis; format: ADME, organism-based; design: time < 24 hrs, dose 10 mg/kg, route po; details: in vivo
[12] = AUClast in Sprague-Dawley rat at 10 mg/kg, po measured upto 24 hrs by LC-MS/MS analysis; format: ADME, organism-based; design: dose 10 mg/kg, time < 24 hrs, route po; details: in vivo
[13] = Oral bioavailability in Sprague-Dawley rat at 10 mg/kg measured upto 24 hrs by LC-MS/MS analysis; format: ADME, organism-based; details: in vivo
[14] = Cmax in Sprague-Dawley rat at 1 mg/kg, iv measured upto 24 hrs by LC-MS/MS analysis; format: ADME, organism-based; design: dose 1 mg/kg, time < 24 hrs, route iv; details: in vivo
[15] = Effect on parathyroid hormone in overnight fasted Sprague-Dawley rat assessed as reduction in plasma PTH level at 10 mg/kg, po measured after 0.5 hrs of post treatment by sandwich ELISA analysis; format: functional; design: scale not given: the % may be the effect or the level left
[16] = Effect on parathyroid hormone in overnight fasted Sprague-Dawley rat assessed as reduction in plasma PTH level at 10 mg/kg, po measured after 2 hrs of post treatment by sandwich ELISA analysis; format: functional; design: scale not given: the % may be the effect or the level left
[17] = Effect on parathyroid hormone in overnight fasted Sprague-Dawley rat assessed as reduction in plasma PTH level at 10 mg/kg, po measured after 4 hrs of post treatment by sandwich ELISA analysis (reference value: 18%); format: functional; design: scale not given: the % may be the effect or the level left
[18] = Effect on parathyroid hormone in overnight fasted Sprague-Dawley rat assessed as reduction in plasma PTH level at 10 mg/kg, po measured after 6 hrs of post treatment by sandwich ELISA analysis (reference value: 33%); format: functional; design: scale not given: the % may be the effect or the level left
Rattus norvegicus [19] = test: Effect on parathyroid hormone in po dosed overnight fasted Sprague-Dawley rat assessed as reduction in plasma PTH level measured after 0.5 to 6 hrs of post treatment by sandwich ELISA analysis; format: functional, organism-based; details: dose 3-30 mg/kg, time 0.5-6 hrs
Rattus norvegicus [20] = test: Acute effect on parathyroid hormone in overnight fasted adenine diet-induced chronic kidney disease Wistar rat model assessed as reduction in plasma PTH level at 10 mg/kg, po measured after 1 hrs of post treatment by sandwich ELISA analysis; format: functional; design: scale not given: the % may be the effect or the level left
Rattus norvegicus [21] = test: Acute effect on parathyroid hormone in overnight fasted adenine diet-induced chronic kidney disease Wistar rat model assessed as reduction in plasma PTH level at 10 mg/kg, po measured after 2 hrs of post treatment by sandwich ELISA analysis; format: functional; design: scale not given: the % may be the effect or the level left
Rattus norvegicus [22] = test: Acute effect on parathyroid hormone in overnight fasted adenine diet-induced chronic kidney disease Wistar rat model assessed as reduction in plasma PTH level at 10 mg/kg, po measured after 4 hrs of post treatment by sandwich ELISA analysis; format: functional; design: scale not given: the % may be the effect or the level left
Rattus norvegicus [23] = test: Chronic effect on parathyroid hormone in overnight fasted adenine diet-induced chronic kidney disease Wistar rat model plasma assessed as reduction in plasma PTH level at 10 mg/kg, po qd measured after 27 days of post treatment by sandwich ELISA analysis; format: functional; design: scale not given: the % may be the effect or the level left; details: time 27 day
Rattus norvegicus [24] = test: Subchronic effect on parathyroid hormone in overnight fasted adenine diet-induced chronic kidney disease Wistar rat model plasma assessed as reduction in plasma PTH level at 3 mg/kg, po qd measured after 27 days of post treatment by sandwich ELISA analysis; format: functional; design: scale not given: the % may be the effect or the level left; details: time 27 day

SMILES: C[C@@H](NCCCc1cccc(C(F)(F)F)c1)c1cccc2ccccc12 [CINACALCET]
- EC50 [1]: 4 nM
- inhibition at 1 µM (hERG [2]): 19%
- inhibition at 10 µM (hERG [3]): 97%
- remaining at 0.5 h, 1 µM [4]: 4%
- remaining at 0.5 h, 1 µM [5]: 65%
- IC50 (Cytochrome P450 2D6): > 50 µM
- AUC(0-t) at 24 h [6]: 1.02 µM·h
- half-life [7]: 360 min
- clearance [8]: 44 mL/min/kg
- Vd [9]: 23 L/kg
- Tmax [10]: 30 min
- Cmax [11]: 270 nM
- AUC(0-t) at 24 h [12]: 1.9 µM·h
- bioavailability [13]: 19%
- Cmax [14]: 500 nM
- Activity [15]: 92%
- Activity [16]: 99%
- Activity [17]: 74%
- Activity [18]: 61%
- Activity (Rattus norvegicus [19]): Dose-Dependent Effect
- Activity (Rattus norvegicus [20]): 92%
- Activity (Rattus norvegicus [21]): 97%
- Activity (Rattus norvegicus [22]): 71%
- Activity (Rattus norvegicus [23]): 58%
- Activity (Rattus norvegicus [24]): 37%
